Measurements: patent US8026282B2, “Phenoxyalkylcarboxylic acid derivatives in the treatment of irritable bowel syndrome” (Medicinova, Inc., priority 2004, dated 2011)

Legend:
[1] = Solubility of polymorphs of compound 1; format: physicochemical; details: compared to the other polymorphs
[2] = Bioavailability of polymorphs of compound 1; format: in vivo; details: compared to the other polymorphs
[3] = test system: interstitial cystitis (IC); test: Example 8: patient with interstitial cystitis symptoms; format: in vivo, human; details: 1000 mg tablet orally twice daily for at least 2 months; present-tense example
Procedure: A person complains of suffering symptoms associated with interstitial cystitis (IC), including gastrointestinal symptoms of diarrhea, bloating and pain. In an effort to alleviate these symptoms, a tablet containing 1000 mg of compound (1) (Form A) is administered orally to this patient twice daily for at least 2 months. […] Similar positive results are observed for other patients complaining of the same or similar symptoms attributable to IC.

solubility [1]: superior
bioavailability [2]: superior
Compound: CCCc1c(SCCCOc2ccc(C(C)=O)c(OCCCC(=O)O)c2CCC)ccc(C(C)=O)c1O [Form A, 4-[6-acetyl-3-[3-(4-acetyl-3-hydroxy-2-propylphenylthio)propoxy]-2-propylphenoxy]butyric acid]
symptoms of interstitial cystitis reported by patient [3]: positive effects
